Activity calls are given as the source filed them. The calls are words filed in the database; no cut-off is given here.
Tests used:
[1] = molecular target: Proto-oncogene tyrosine-protein kinase Src (Homo sapiens, UniProt P12931); assay: Inhibition of human c-SRC by kinase assay
[2] = Oral bioavailability in Balb/C mouse at 10 mg/kg measured upto 48 hrs by LC-MS/MS analysis; format: ADME, organism-based; details: in vivo
[3] = Clearance in Balb/C mouse plasma at 10 mg/kg, po measured upto 48 hrs by LC-MS/MS analysis; format: ADME, organism-based
[4] = molecular target: Platelet-derived growth factor receptor beta (Homo sapiens, UniProt P09619); assay: Inhibition of human PDGFRbeta by kinase assay
Mus musculus [5] = assay: Anti-inflammatory activity against DSS-induced acute ulcerative colitis C57BL/6 mouse model assessed as recovery of body weight at 20 to 40 mg/kg, po once a day measured after 2 days followed by 7 days after DSS treatment; format: functional, organism-based; details: dose 20-40 mg/kg, time 2.0 day
Mus musculus [6] = assay: Anti-inflammatory activity against DSS-induced acute ulcerative colitis C57BL/6 mouse model assessed as reduction in fecal occult blood at 20 to 40 mg/kg, po once a day measured after 2 days followed by 7 days after DSS treatment; format: functional, organism-based; details: dose 20-40 mg/kg, time 2.0 day
[7] = molecular target: T1, Receptor-type tyrosine-protein kinase FLT3 (Homo sapiens, UniProt P36888); assay: Inhibition of human FLT3 by kinase assay
T1 sequence (P36888 whole entry): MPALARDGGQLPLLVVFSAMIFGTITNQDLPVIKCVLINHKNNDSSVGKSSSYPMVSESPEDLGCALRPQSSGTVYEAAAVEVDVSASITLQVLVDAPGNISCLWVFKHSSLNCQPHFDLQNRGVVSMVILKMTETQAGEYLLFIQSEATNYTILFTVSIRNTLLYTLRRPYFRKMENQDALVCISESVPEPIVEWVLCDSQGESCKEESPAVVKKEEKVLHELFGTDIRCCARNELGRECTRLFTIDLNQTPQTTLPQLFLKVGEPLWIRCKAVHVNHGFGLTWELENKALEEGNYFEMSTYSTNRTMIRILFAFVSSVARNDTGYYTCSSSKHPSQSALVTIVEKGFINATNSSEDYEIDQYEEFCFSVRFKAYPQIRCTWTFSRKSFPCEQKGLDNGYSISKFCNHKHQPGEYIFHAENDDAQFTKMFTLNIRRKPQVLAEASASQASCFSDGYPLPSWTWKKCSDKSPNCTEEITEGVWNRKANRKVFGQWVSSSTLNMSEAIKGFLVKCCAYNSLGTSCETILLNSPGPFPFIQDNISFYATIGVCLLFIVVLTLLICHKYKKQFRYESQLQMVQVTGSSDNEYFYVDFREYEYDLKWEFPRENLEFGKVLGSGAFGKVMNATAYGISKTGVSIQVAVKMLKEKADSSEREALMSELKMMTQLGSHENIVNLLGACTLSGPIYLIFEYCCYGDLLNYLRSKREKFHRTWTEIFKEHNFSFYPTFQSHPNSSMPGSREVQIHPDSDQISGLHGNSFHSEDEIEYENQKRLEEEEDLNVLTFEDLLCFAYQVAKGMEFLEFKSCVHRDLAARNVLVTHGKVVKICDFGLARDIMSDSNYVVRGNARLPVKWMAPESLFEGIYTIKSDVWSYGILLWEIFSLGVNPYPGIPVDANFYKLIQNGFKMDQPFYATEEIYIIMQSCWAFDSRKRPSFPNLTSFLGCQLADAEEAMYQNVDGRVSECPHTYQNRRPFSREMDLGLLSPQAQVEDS

[8] = Clearance in Balb/C mouse plasma at 10 mg/kg, iv measured upto 48 hrs by LC-MS/MS analysis; format: ADME, organism-based
[9] = Cmax in Balb/C mouse at 10 mg/kg, po measured upto 48 hrs by LC-MS/MS analysis; format: ADME, organism-based; design: dose 10 mg/kg, time < 48 hrs, route po; details: in vivo
[10] = Cmax in Balb/C mouse at 10 mg/kg, iv measured upto 48 hrs by LC-MS/MS analysis; format: ADME, organism-based; design: dose 10 mg/kg, time < 48 hrs, route iv; details: in vivo
[11] = molecular target: T2, Receptor-interacting serine/threonine-protein kinase 1 (Homo sapiens, UniProt Q13546); assay: Inhibition of human RIPK1 by kinase assay
T2 sequence (Q13546 whole entry): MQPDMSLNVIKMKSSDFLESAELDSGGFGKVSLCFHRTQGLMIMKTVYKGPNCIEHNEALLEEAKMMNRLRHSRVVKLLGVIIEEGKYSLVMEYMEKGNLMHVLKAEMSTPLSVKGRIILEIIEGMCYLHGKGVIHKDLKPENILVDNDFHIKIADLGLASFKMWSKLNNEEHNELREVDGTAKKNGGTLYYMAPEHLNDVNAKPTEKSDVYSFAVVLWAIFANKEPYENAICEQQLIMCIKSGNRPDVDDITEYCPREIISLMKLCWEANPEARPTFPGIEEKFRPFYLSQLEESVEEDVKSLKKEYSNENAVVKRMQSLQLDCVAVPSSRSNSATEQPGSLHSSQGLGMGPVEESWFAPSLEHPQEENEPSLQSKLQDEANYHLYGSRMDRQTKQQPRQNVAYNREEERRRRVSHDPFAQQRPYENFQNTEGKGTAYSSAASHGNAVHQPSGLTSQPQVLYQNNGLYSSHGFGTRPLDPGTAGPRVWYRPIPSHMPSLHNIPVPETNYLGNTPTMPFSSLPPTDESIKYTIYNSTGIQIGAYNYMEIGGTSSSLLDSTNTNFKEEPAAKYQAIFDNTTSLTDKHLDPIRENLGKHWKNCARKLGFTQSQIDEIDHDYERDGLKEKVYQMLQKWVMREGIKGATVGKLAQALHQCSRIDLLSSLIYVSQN

Mus musculus [12] = assay: Anti-inflammatory activity against DSS-induced acute ulcerative colitis C57BL/6 mouse model assessed as reduction in disease severity at 20 to 40 mg/kg, po once a day measured after 2 days followed by 7 days after DSS treatment; format: functional, organism-based; details: dose 20-40 mg/kg, time 2.0 day
Mus musculus [13] = assay: Anti-inflammatory activity against DSS-induced acute ulcerative colitis C57BL/6 mouse model assessed as reduction in watery stools at 20 to 40 mg/kg, po once a day measured after 2 days followed by 7 days after DSS treatment; format: functional, organism-based; details: dose 20-40 mg/kg, time 2.0 day
BMDM = assay: Cytotoxicity against mouse BMDM cells at 62.5 to 250 nM in presence of NOD; format: toxicity, cell-based; details: 0.25 µM, dose 62.5-250 nM

Sequence of Platelet-derived growth factor receptor beta (P09619 whole entry): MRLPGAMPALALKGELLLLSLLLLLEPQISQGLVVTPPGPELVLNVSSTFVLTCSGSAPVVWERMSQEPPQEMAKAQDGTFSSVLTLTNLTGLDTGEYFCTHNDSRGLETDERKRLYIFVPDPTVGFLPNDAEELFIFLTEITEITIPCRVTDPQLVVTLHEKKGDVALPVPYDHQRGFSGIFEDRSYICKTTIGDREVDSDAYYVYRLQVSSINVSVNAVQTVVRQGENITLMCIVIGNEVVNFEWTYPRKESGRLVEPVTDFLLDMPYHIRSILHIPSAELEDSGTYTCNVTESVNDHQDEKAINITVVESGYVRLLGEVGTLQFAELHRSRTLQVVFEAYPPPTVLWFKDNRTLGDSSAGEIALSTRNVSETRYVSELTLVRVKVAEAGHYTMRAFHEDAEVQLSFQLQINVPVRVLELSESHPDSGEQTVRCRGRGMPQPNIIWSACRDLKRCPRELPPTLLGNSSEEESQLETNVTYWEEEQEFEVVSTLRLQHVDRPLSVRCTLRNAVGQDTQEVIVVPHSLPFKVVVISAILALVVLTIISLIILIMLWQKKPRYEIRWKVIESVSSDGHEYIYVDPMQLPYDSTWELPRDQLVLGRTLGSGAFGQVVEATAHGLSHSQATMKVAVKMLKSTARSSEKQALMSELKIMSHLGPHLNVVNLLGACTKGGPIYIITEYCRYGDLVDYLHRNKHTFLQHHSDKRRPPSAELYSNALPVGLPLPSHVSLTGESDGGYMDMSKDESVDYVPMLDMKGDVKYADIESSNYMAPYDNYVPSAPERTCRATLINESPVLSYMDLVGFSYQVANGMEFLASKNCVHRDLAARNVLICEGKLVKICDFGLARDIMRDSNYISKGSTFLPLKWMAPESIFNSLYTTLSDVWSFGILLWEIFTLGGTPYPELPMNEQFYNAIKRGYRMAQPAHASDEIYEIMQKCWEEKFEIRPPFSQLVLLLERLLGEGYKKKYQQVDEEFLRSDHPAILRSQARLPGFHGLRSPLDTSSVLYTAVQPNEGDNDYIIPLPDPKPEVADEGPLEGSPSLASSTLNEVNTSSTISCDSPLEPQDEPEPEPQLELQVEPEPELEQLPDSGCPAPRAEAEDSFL
Sequence of Proto-oncogene tyrosine-protein kinase Src (P12931 2-536 limits assumed): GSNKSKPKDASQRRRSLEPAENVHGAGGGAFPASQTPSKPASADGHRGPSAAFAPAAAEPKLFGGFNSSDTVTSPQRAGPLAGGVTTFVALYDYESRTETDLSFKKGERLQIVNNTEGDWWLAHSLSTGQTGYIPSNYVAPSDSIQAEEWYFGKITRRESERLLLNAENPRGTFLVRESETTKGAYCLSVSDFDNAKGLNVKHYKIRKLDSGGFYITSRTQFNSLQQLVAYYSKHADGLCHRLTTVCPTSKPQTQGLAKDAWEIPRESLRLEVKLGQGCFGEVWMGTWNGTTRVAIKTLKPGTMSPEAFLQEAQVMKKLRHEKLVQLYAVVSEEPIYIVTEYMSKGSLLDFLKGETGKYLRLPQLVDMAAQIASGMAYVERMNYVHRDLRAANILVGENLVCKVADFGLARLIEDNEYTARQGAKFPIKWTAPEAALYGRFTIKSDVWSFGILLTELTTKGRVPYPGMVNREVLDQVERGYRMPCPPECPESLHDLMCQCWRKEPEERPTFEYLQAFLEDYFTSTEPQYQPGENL

IC50 [1]: 56 nM
bioavailability [2]: 15.1%
CL/F [3]: 1130 mL/min/kg
IC50 [4]: 862 nM
IC50 [7]: 4780 nM
clearance [8]: 166 mL/min/kg
Cmax [9]: 68.1 ng/mL
Cmax [10]: 959 ng/mL
IC50 [11]: > 30000 nM
Compound: Cc1ccc(-c2cn([C@H]3CC[C@@H](N)CC3)c3ncnc(N)c23)c(F)c1
Activity (Mus musculus [5]): Active
Activity (Mus musculus [6]): Active
Activity (Mus musculus [12]): Active
Activity (Mus musculus [13]): Active
Activity (BMDM): Non-Toxic

From ChEMBL document CHEMBL5131564, “Discovery of Potent and Selective Receptor-Interacting Serine/Threonine Protein Kinase 2 (RIPK2) Inhibitors for the Treatment of Inflammatory Bowel Diseases (IBDs)” (J Med Chem, 2022)
